Measurements: ChEMBL document CHEMBL3885881, “DrugMatrix”

Species: Rattus norvegicus
Assay: DrugMatrix - Regimen: Daily Repeat
Type: toxicity, organism-based, Sprague-Dawley
Design: regimen Daily Repeat, gender Male, age 6-8 weeks
Conditions: in vivo, po, 620 mg/kg, route oral GAVAGE, dose level High, vehicle 100 % WATER; for BASOPHIL / EOSINOPHIL / ERYTHROCYTE COUNT / HEMATOCRIT / HEMOGLOBIN / LEUKOCYTE COUNT / LYMPHOCYTE / MEAN CORPUSCULAR HEMOGLOBIN / MEAN CORPUSCULAR HEMOGLOBIN CONCENTRATION / MEAN CORPUSCULAR VOLUME / MONOCYTE / NEUTROPHIL / PLATELET COUNT: tissue Blood; for ALANINE AMINOTRANSFERASE / ALBUMIN / ALKALINE PHOSPHATASE / ASPARTATE AMINOTRANSFERASE / BLOOD UREA NITROGEN / CARBON DIOXIDE / CHLORIDE / CHOLESTEROL / CREATINE PHOSPHOKINASE / CREATININE / GLUCOSE / LACTATE DEHYDROGENASE / LIPASE / PHOSPHORUS / POTASSIUM / SODIUM / TOTAL BILIRUBIN / TOTAL PROTEIN / URIC ACID: tissue Plasma

SMILES: OCCNCCO [DIETHANOLAMINE]
- BASOPHIL (72 h, time 3 day): 0.67%
- EOSINOPHIL (72 h, time 3 day): 0.37%
- ERYTHROCYTE COUNT (72 h, time 3 day): 6.14 x10E6/uL
- HEMATOCRIT (72 h, time 3 day): 41.37%
- HEMOGLOBIN (72 h, time 3 day): 13.23 G/DL
- LEUKOCYTE COUNT (72 h, time 3 day): 8.17 x10E3/uL
- LYMPHOCYTE (72 h, time 3 day): 87.67%
- MEAN CORPUSCULAR HEMOGLOBIN (72 h, time 3 day): 21.6 pg
- MEAN CORPUSCULAR HEMOGLOBIN CONCENTRATION (72 h, time 3 day): 32.1 G/DL
- MEAN CORPUSCULAR VOLUME (72 h, time 3 day): 67.4 fL
- MONOCYTE (72 h, time 3 day): 2.03%
- NEUTROPHIL (72 h, time 3 day): 6.8%
- PLATELET COUNT (72 h, time 3 day): 1227 x10E3/uL
- ALANINE AMINOTRANSFERASE (72 h, time 3 day): 45.67 u/L
- ALBUMIN (72 h, time 3 day): 4.33 G/DL
- ALKALINE PHOSPHATASE (72 h, time 3 day): 468 u/L
- ASPARTATE AMINOTRANSFERASE (72 h, time 3 day): 125.67 u/L
- BLOOD UREA NITROGEN (72 h, time 3 day): 18 mg/dL
- CARBON DIOXIDE (72 h, time 3 day): 24.33 mmol/L
- CHLORIDE (72 h, time 3 day): 111 MEQ/L
- CHOLESTEROL (72 h, time 3 day): 75 mg/dL
- CREATINE PHOSPHOKINASE (72 h, time 3 day): 164.33 u/L
- CREATININE (72 h, time 3 day): 0.5 mg/dL
- GLUCOSE (72 h, time 3 day): 181.67 mg/dL
- LACTATE DEHYDROGENASE (72 h, time 3 day): 102.67 u/L
- LIPASE (72 h, time 3 day): 21.33 u/L
- PHOSPHORUS (72 h, time 3 day): 13.47 mg/dL
- POTASSIUM (72 h, time 3 day): 6.33 MEQ/L
- SODIUM (72 h, time 3 day): 154.33 MEQ/L
- TOTAL BILIRUBIN (72 h, time 3 day): 0.3 mg/dL
- TOTAL PROTEIN (72 h, time 3 day): 6.5 G/DL
- URIC ACID (72 h, time 3 day): 2.07 mg/dL
- BASOPHIL (120 h, time 5 day): 0.47%
- EOSINOPHIL (120 h, time 5 day): 0.37%
- ERYTHROCYTE COUNT (120 h, time 5 day): 6.72 x10E6/uL
- HEMATOCRIT (120 h, time 5 day): 42.63%
- HEMOGLOBIN (120 h, time 5 day): 13.57 G/DL
- LEUKOCYTE COUNT (120 h, time 5 day): 7.2 x10E3/uL
- LYMPHOCYTE (120 h, time 5 day): 85.43%
- MEAN CORPUSCULAR HEMOGLOBIN (120 h, time 5 day): 20.17 pg
- MEAN CORPUSCULAR HEMOGLOBIN CONCENTRATION (120 h, time 5 day): 31.77 G/DL
- MEAN CORPUSCULAR VOLUME (120 h, time 5 day): 63.43 fL
- MONOCYTE (120 h, time 5 day): 2.37%
- NEUTROPHIL (120 h, time 5 day): 9.9%
- PLATELET COUNT (120 h, time 5 day): 1342 x10E3/uL
- ALANINE AMINOTRANSFERASE (120 h, time 5 day): 54.33 u/L
- ALBUMIN (120 h, time 5 day): 4.7 G/DL
- ALKALINE PHOSPHATASE (120 h, time 5 day): 407 u/L
- ASPARTATE AMINOTRANSFERASE (120 h, time 5 day): 196.33 u/L
- BLOOD UREA NITROGEN (120 h, time 5 day): 18.33 mg/dL
- CARBON DIOXIDE (120 h, time 5 day): 26 mmol/L
- CHLORIDE (120 h, time 5 day): 109.33 MEQ/L
- CHOLESTEROL (120 h, time 5 day): 82.67 mg/dL
- CREATINE PHOSPHOKINASE (120 h, time 5 day): 320.67 u/L
- CREATININE (120 h, time 5 day): 0.33 mg/dL
- GLUCOSE (120 h, time 5 day): 164.33 mg/dL
- LACTATE DEHYDROGENASE (120 h, time 5 day): 81.33 u/L
- LIPASE (120 h, time 5 day): 24.67 u/L
- PHOSPHORUS (120 h, time 5 day): 12.87 mg/dL
- POTASSIUM (120 h, time 5 day): 5.67 MEQ/L
- SODIUM (120 h, time 5 day): 152.67 MEQ/L
- TOTAL BILIRUBIN (120 h, time 5 day): 0.4 mg/dL
- TOTAL PROTEIN (120 h, time 5 day): 7.07 G/DL
- URIC ACID (120 h, time 5 day): 2.27 mg/dL
- BASOPHIL ([…], time 14 day): 1.68%
- EOSINOPHIL ([…], time 14 day): 0.28%
- ERYTHROCYTE COUNT ([…], time 14 day): 6.33 x10E6/uL
- HEMATOCRIT ([…], time 14 day): 37.84%
- HEMOGLOBIN ([…], time 14 day): 12.58 G/DL
- LEUKOCYTE COUNT ([…], time 14 day): 17.16 x10E3/uL
- LYMPHOCYTE ([…], time 14 day): 79.3%
- MEAN CORPUSCULAR HEMOGLOBIN ([…], time 14 day): 19.88 pg
- MEAN CORPUSCULAR HEMOGLOBIN CONCENTRATION ([…], time 14 day): 33.26 G/DL
- MEAN CORPUSCULAR VOLUME ([…], time 14 day): 59.7 fL
- MONOCYTE ([…], time 14 day): 1.7%
- NEUTROPHIL ([…], time 14 day): 15.34%
- PLATELET COUNT ([…], time 14 day): 590 x10E3/uL
- ALANINE AMINOTRANSFERASE ([…], time 14 day): 40.2 u/L
- ALBUMIN ([…], time 14 day): 4.34 G/DL
- ALKALINE PHOSPHATASE ([…], time 14 day): 449 u/L
- ASPARTATE AMINOTRANSFERASE ([…], time 14 day): 305.8 u/L
- BLOOD UREA NITROGEN ([…], time 14 day): 32.2 mg/dL
- CARBON DIOXIDE ([…], time 14 day): 27.6 mmol/L
- CHLORIDE ([…], time 14 day): 106 MEQ/L
- CHOLESTEROL ([…], time 14 day): 46.6 mg/dL
- CREATINE PHOSPHOKINASE ([…], time 14 day): 123.4 u/L
- CREATININE ([…], time 14 day): 0.56 mg/dL
- GLUCOSE ([…], time 14 day): 162 mg/dL
- LACTATE DEHYDROGENASE ([…], time 14 day): 58 u/L
- LIPASE ([…], time 14 day): 19 u/L
- PHOSPHORUS ([…], time 14 day): 12.6 mg/dL
- POTASSIUM ([…], time 14 day): 5.54 MEQ/L
- SODIUM ([…], time 14 day): 151 MEQ/L
- TOTAL BILIRUBIN ([…], time 14 day): 0.34 mg/dL
- TOTAL PROTEIN ([…], time 14 day): 6.32 G/DL
- URIC ACID ([…], time 14 day): 0.68 mg/dL
